# Results reported in patent publication US5475136A, “Inhibitors of HIV protease useful for the treatment of AIDS” (Eli Lilly and Company, priority 1992, dated 1995).
# Biological target: T1, HIV-1 protease (Human immunodeficiency virus type 1 group M subtype B, UniProt P04585)
# T1 construct: host or cells: E. coli K12 L507/pHP10D
# Assay: biochemical
# Conditions: read-out: Fluorescence Assay IC50 (converted)
# Experimental: Lyophils of E. coli K12 L507/pHP10D were obtained from the Northern Regional Research Laboratory, Peoria, Ill. 61604, under the accession number NRRL B-18560 (deposited Nov. 14, 1989).
# A culture of E. coli K12 L507/pHP10D was grown to mid-log phase at 32° C. in LB media containing 12.5 μg/mL tetracycline. The cultivation temperature was quickly elevated to 40° C. to induce gene expression, and the cells were allowed to grow for 2.5 hours at this temperature before the culture was quickly chilled on ice. The cells were centrifuged and the cell pellet was resuspended in 20 mL 50 mmol MES buffer (pH 6.0) containing 1 mmol EDTA, 1 mmol DTT, 1 mmol PMSF and 10% glycerol ("Buffer A"). Cells were lysed by sonication using a Fischer Model 300 Dismembrator and a microtip probe. […] Res. Commun., 167, 554-560 (1990); the production of the pl peptide (SQNY) was measured.
# The active fractions were combined, made 1.2M in ammonium sulfate, and applied to a 2.0×18 cm hexyl agarose column that had been equilibrated in Buffer A containing 1.2M ammonium sulfate. The sample was loaded at a flow rate of 1 mL/min at 4° C., washed with the equilibration buffer for 240 min (1 mL/min) and then eluted using a reverse linear gradient of 1.2-0M ammonium sulfate in Buffer A for 120 min at the same flow rate. The column was then washed isocratically in Buffer A for 120 min. […]
row,IC50 [nM],Compound
1,1.24,"CC(=O)N[C@@H](CC(N)=O)C(=O)N[C@@H](CSc1ccc2ccccc2c1)[C@H](O)Cc1ccccc1C(=O)NC(C)(C)C (relative stereo) [Example 1, [2'R-(2'R*,3'R*, 6'S*)]-N(t-butyl)-2-[2'-hydroxy-3'-naphth-2-ylthiomethyl-4',7'-diaza-5',8'-dioxo-6'-(2""-amino-2""-oxoethyl)]nonyl benzamide]"
2,21.2,"CC(=O)N[C@@H](CC(N)=O)C(=O)N[C@@H](CSc1ccccc1)[C@H](O)Cc1ccccc1C(=O)NC(C)(C)C (relative stereo) [Example 2, [2'R-(2'R*,3'R*,6'S*)]-N(t-Butyl)-2-[2'-hydroxy-3'-phenylthiomethyl-4',7'-diaza-5',8'-dioxo-6'-(2""-amino-2""-oxoethyl)]nonyl benzamide]"
